The results in this text go back to patent publication US9550772B2, “Azaindole derivatives as multi kinase inhibitors” (ORIBASE PHARMA, priority 2012, dated 2017).

Where two headings read alike, the source gives them in different places.

The target of one test is T1, KDR (VEGFR2) (Homo sapiens, UniProt P35968).
T1 construct: purchased Invitrogen
The test is described as follows: In vitro kinase assay (Z'-LYTE, Invitrogen). Format: biochemical. Particulars: compound at 100 nM, ATP Km apparent, read-out: % of inhibition of the kinase compared to the control. How it is done: (§1) The inhibitory activity of the compounds on 7 kinases (BRAF, EGFR (ErbB1), EGFR (ErbB1) T790M L858R, FGFR2, KDR (VEGFR2), PDGFRA (PDGFR alpha), SRC) was evaluated by Invitrogen using the Z′-LYTE® technology. Briefly, the Z′-LYTE® biochemical assay employs a fluorescence-based, coupled-enzyme format and is based on the differential sensitivity of phosphorylated and non-phosphorylated peptides to proteolytic cleavage. The peptide substrate is labeled with two fluorophores—one at each end—that make up a FRET pair. A ratiometric method, which calculates the ratio (the Emission Ratio) of donor emission to acceptor emission after excitation of the donor fluorophore at 400 nm, is used to quantitate reaction progress.
(§2) The compounds are screened in 1% DMSO (final) in the well. For 10 point titrations, 3-fold serial dilutions are conducted from the starting concentration. All Peptide/Kinase Mixtures are diluted to a 2× working concentration in the appropriate Kinase Buffer. All ATP Solutions are diluted to a 4× working concentration in Kinase Buffer (50 mM HEPES pH 7.5, 0.01% BRIJ-35, 10 mM MgCl2, 1 mM EGTA). ATP Km apparent is previously determined using a Z′-LYTE® assay.
(§3) Each compound was incubated at a concentration of 100 nM and the tables 21 to 27 summarize the results obtained showing the inhibitory power of a compound.

The target of a further test is T2, BRAF (Homo sapiens, UniProt P15056).
T2 construct: purchased Invitrogen
The test is described as follows: In vitro kinase assay (Z'-LYTE, Invitrogen). Format: biochemical. As to conditions: compound at 100 nM, ATP Km apparent, read-out: % of inhibition of the kinase compared to the control. How it is done: as §1, §2, §3

Another test concerns the target T3, EGFR (ErbB1) (Homo sapiens, UniProt P00533).
T3 construct: purchased Invitrogen
The test is described as follows: In vitro kinase assay (Z'-LYTE, Invitrogen). Format: biochemical. Particulars: compound at 100 nM, ATP Km apparent, read-out: % of inhibition of the kinase compared to the control. How it is done:
as §1, §2, §3

In another test the target is T4, FGFR2 (Homo sapiens, UniProt P21802).
T4 construct: purchased Invitrogen
Briefly: In vitro kinase assay (Z'-LYTE, Invitrogen). The test is classed as biochemical. Particulars: compound at 100 nM, ATP Km apparent, read-out: % of inhibition of the kinase compared to the control. On the procedure:
as §1, §2, §3

A further test relates to HepG2 cell line. The test is described as follows: In vitro cell proliferation assay (MTT). Particulars: Homo sapiens, HepG2, 72 hr, read-out: EC50, anti-proliferative activity. The test is classed as cell-based. How it is done: (§4) Cancer cell lines (5×10^3 cells per well) or HUVEC (1×10^4 cells per well) or HRMEC (1×10^4 cells per well) were distributed in 96-well plates and incubating in duplicate with escalating concentrations (10 nM to 3 μM) of compounds for 72 hr. Cell proliferation was measured using MTT (3[4,5-dimethylthiazol-2-yl]-2,5-diphenyltetrazolium bromide). The EC50 values were calculated from sigmoidal dose-response curves utilizing Prism 5.0 from Graph-Pad Software (GraphPad Software, La Jolla, Calif., USA), with values normalized to those of DMSO-treated control wells (0%) and 1% SDS control wells (100%).

In a further test the test system is HUVEC cells. The test is described as follows: In vitro cell proliferation assay (MTT). The test is classed as cell-based. Particulars: Homo sapiens, 72 hr, read-out: EC50, anti-proliferative activity. How it is done:
as §4

A further test has as its target T5, PDGFRA (PDGFR alpha) (Homo sapiens, UniProt P16234).
T5 construct: purchased Invitrogen
The test is described as follows: In vitro kinase assay (Z'-LYTE, Invitrogen). Format: biochemical. As to conditions: compound at 100 nM, ATP Km apparent, read-out: % of inhibition of the kinase compared to the control. On the procedure: as §1, §2, §3

For another test, the target named is T6, SRC (Homo sapiens, UniProt P12931).
T6 construct: purchased Invitrogen
Briefly: In vitro kinase assay (Z'-LYTE, Invitrogen). Format: biochemical. Particulars: compound at 100 nM, ATP Km apparent, read-out: % of inhibition of the kinase compared to the control. How it is done: as §1, §2, §3

T2 sequence (P15056 whole entry): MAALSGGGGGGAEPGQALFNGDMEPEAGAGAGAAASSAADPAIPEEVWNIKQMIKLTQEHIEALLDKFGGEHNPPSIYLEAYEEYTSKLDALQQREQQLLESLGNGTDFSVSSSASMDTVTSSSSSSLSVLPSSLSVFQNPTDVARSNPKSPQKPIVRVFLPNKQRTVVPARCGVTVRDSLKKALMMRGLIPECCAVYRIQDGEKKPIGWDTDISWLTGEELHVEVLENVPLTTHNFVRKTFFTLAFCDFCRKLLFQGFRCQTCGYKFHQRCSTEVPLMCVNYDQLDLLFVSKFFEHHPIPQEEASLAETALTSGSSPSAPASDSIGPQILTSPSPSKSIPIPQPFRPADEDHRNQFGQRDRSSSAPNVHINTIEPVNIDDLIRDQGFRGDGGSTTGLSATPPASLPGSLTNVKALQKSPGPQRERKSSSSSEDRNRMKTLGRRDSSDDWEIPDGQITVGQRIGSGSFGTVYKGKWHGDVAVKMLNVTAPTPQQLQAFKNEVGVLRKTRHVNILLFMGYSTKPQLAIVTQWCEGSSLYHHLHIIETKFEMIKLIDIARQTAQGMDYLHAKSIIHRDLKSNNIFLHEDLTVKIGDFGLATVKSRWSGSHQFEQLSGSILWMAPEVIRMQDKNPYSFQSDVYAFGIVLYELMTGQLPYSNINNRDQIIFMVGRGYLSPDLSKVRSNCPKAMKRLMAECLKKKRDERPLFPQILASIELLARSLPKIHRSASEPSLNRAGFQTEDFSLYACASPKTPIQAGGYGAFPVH
T4 sequence (P21802 22-821): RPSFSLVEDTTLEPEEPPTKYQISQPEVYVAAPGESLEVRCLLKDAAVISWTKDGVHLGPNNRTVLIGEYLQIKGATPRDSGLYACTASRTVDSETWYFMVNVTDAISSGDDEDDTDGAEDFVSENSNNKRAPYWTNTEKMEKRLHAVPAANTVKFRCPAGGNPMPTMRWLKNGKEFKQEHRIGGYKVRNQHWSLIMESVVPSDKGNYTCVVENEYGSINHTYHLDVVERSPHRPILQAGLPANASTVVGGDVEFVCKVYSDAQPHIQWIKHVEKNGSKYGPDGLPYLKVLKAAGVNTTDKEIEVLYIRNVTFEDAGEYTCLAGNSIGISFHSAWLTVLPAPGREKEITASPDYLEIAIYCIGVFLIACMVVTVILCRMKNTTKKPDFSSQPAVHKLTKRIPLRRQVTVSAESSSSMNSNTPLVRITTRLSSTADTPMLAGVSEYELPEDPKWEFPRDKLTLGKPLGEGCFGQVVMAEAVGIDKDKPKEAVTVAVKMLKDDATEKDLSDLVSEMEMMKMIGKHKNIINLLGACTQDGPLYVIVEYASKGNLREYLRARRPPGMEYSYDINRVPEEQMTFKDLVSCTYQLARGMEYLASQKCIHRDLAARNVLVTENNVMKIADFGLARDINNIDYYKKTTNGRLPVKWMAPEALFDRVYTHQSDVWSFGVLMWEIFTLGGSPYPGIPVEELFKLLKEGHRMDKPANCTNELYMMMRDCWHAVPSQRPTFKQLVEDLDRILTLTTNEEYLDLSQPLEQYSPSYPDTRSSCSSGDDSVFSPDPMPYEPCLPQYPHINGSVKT
T3 sequence (P00533 25-1210): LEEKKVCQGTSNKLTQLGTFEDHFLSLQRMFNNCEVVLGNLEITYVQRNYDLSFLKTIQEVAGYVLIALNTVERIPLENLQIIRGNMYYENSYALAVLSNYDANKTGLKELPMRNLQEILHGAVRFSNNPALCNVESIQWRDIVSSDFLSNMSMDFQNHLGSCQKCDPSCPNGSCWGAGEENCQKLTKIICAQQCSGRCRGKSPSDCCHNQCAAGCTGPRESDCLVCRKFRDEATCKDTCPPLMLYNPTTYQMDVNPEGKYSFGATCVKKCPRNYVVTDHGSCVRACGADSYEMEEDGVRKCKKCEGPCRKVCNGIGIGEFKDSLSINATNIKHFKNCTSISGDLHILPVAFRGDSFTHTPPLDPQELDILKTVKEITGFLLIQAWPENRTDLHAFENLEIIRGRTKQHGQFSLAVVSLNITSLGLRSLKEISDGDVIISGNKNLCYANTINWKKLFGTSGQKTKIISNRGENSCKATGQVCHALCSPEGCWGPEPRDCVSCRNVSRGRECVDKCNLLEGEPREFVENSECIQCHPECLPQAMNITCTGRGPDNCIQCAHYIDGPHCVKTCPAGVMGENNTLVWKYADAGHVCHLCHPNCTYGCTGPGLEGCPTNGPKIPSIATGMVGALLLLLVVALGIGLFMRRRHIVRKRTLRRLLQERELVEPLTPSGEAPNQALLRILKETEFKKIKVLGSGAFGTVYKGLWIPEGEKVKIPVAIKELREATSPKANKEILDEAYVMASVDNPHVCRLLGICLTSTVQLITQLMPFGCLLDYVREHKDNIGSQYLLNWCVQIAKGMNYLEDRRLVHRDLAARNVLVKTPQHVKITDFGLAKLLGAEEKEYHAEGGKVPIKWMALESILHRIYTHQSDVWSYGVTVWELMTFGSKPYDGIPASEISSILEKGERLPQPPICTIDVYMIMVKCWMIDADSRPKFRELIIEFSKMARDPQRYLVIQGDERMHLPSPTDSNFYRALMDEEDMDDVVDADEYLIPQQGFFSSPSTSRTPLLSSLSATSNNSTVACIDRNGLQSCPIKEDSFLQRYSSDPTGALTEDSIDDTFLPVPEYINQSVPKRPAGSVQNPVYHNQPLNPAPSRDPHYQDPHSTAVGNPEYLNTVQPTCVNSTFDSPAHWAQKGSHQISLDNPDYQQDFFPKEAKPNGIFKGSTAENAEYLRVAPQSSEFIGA
T1 sequence (P35968 20-1356): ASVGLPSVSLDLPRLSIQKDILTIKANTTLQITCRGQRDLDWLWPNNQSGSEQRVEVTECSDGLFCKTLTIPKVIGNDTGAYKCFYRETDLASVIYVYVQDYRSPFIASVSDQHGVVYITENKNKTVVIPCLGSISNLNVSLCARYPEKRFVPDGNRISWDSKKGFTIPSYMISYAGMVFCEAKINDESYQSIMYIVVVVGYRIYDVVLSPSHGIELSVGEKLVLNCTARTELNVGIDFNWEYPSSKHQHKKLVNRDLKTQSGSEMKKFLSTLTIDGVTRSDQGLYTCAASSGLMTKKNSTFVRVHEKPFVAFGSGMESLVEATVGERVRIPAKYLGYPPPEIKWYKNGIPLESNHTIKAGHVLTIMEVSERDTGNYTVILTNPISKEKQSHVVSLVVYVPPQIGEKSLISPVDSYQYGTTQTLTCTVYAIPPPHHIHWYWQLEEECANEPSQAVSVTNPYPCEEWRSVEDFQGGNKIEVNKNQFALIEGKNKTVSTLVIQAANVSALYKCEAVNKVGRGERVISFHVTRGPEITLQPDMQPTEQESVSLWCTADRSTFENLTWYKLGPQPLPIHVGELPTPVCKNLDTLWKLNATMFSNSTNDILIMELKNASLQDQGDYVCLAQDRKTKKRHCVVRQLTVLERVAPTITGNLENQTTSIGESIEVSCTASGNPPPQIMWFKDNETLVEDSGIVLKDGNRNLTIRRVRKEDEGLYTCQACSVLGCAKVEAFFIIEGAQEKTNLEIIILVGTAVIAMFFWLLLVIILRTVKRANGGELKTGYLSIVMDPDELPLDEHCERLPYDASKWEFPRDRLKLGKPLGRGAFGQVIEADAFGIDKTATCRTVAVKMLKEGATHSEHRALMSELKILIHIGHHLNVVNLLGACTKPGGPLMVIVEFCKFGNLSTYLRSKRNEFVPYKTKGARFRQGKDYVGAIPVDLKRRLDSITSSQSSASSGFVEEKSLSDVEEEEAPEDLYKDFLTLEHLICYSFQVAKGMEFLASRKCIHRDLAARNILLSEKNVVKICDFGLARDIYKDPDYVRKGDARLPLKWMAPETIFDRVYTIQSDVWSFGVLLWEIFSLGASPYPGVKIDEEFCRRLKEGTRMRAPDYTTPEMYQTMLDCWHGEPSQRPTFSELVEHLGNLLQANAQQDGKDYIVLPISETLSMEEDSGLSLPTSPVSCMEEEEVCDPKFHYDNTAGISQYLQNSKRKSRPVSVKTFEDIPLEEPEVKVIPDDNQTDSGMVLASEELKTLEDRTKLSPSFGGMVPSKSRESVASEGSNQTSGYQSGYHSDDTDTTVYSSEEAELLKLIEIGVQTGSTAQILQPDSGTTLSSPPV
T6 sequence (P12931 whole entry): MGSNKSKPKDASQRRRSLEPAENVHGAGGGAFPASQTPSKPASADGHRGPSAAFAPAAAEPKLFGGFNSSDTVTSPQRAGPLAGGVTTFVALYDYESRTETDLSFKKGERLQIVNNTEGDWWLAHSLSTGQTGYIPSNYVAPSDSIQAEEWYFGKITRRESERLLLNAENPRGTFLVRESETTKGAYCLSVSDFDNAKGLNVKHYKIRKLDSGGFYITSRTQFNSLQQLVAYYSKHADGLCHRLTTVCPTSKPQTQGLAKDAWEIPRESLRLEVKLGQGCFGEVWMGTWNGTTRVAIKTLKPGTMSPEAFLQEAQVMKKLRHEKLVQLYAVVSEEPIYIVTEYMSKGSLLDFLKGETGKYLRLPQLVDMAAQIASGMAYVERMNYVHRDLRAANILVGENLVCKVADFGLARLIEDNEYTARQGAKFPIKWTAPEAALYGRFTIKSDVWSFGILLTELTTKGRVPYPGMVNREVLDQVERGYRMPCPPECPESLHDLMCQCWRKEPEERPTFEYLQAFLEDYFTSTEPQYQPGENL

On to `Cc1ccc(NC(=O)c2ccc(CN3CCN(C)CC3)c(C(F)(F)F)c2)cc1CCc1cnc2[nH]c(C(=O)O)cc2c1` [OR1054, 5-(2-{2-Methyl-5-[4-(4-methyl-piperazin-1-ylmethyl)-3-trifluoromethyl-benzoylamino]-phenyl}-ethyl)-1H-pyrrolo[2,3-b]pyridine-2-carboxylic acid], for which the inhibition (commonly the share of the control response that was lost under treatment) at 0.1 µM was not below 50% at KDR (VEGFR2), less than 50% on BRAF, not below 50% at EGFR (ErbB1) and not below 50% on FGFR2.

Turning to `COC(=O)c1cc2cc(CCc3cc(NC(=O)Nc4cccc(C(F)(F)F)c4)ccc3C)cnc2[nH]1` [OR0918, 5-(2-{2-Methyl-5-[3-(3-trifluoromethyl-phenyl)-ureido]-phenyl}-ethyl)-1H-pyrrolo[2,3-b]pyridine-2-carboxylic acid methyl ester], the EC50 with HepG2 cell line (EC50 ≧ 1 μM) and in the test on HUVEC cells (EC50 ≧ 1 μM) was not below 1000 nM in each case. Further, the inhibition at 0.1 µM at PDGFRA (PDGFR alpha) is not below 50%; on KDR (VEGFR2), less than 50%; on BRAF, less than 50%; at EGFR (ErbB1) it was less than 50%; at SRC, less than 50%; at FGFR2 it was less than 50%.

Turning to `COC(=O)c1cc2cc(CCc3cc(NC(=O)c4ccccc4OC)ccc3Cl)cnc2[nH]1` [OR1064, 5-{2-[2-Chloro-5-(2-methoxy-benzoylamino)-phenyl]-ethyl}-1H-pyrrolo[2,3-b]pyridine-2-carboxylic acid methyl ester], the inhibition at 0.1 µM on PDGFRA (PDGFR alpha) was not below 50%; on KDR (VEGFR2), less than 50%; at BRAF it was less than 50%; on EGFR (ErbB1), less than 50%; at SRC it was less than 50%; on FGFR2, less than 50%.

`COC(=O)c1cc2cc(CCc3cc(NC(=O)c4ccc(CN5CCN(C)CC5)c(F)c4)ccc3C)cnc2[nH]1` [OR0920, 5-(2-{5-[3-Fluoro-4-(4-methyl-piperazin-1-ylmethyl)-benzoylamino]-2-methyl-phenyl}-ethyl)-1H-pyrrolo[2,3-b]pyridine-2-carboxylic acid methyl ester]: the EC50 (commonly the concentration needed to bring the measured effect to its halfway point) with HepG2 cell line (100 nM < EC50 < 1 μM) is 100 to 1000 nM; in the test on HUVEC cells (EC50 ≧ 1 μM), not below 1000 nM. The inhibition at 0.1 µM on KDR (VEGFR2), on BRAF, on EGFR (ErbB1) and at FGFR2 was not below 50% each time.

Regarding `CCN(CC)CCNC(=O)c1c(C)[nH]c(/C=C2\C(=O)Nc3ccc(F)cc32)c1C` [Sunitinib, reference compound], the EC50 in the test on HUVEC cells (EC50 ≧ 1 μM) was not below 1000 nM.

Take `COC(=O)c1cc2cc(CCc3cc(NC(=S)c4ccc(CN5CCN(C)CC5)cc4)ccc3C)cnc2[nH]1` [OR0969, 5-(2-{2-Methyl-5-[4-(4-methyl-piperazin-1-ylmethyl)-thiobenzoylamino]-phenyl}-ethyl)-1H-pyrrolo[2,3-b]pyridine-2-carboxylic acid methyl ester]: the EC50 in the test on HepG2 cell line (EC50 ≧ 1 μM) and with HUVEC cells (EC50 ≧ 1 μM) was not below 1000 nM in each case. Further, the inhibition at 0.1 µM at KDR (VEGFR2) was not below 50%; at BRAF, less than 50%; at EGFR (ErbB1) it was not below 50%; at FGFR2 it was not below 50%.

As for `COC(=O)c1cc2cc(CCc3cccc(NC(=O)c4ccc(CN5CCC(N(C)C)C5)c(C(F)(F)F)c4)c3)cnc2[nH]1` (stereo not shown) [OR0922, 5-(2-{5-[4-(3-Dimethylamino-pyrrolidin-1-ylmethyl)-3-trifluoromethyl-benzoylamino]-phenyl}-ethyl)-1H-pyrrolo[2,3-b]pyridine-2-carboxylic acid methyl ester], the EC50 in the test with HepG2 cell line (EC50 ≧ 1 μM) was not below 1000 nM; with HUVEC cells (100 nM < EC50 < 1 μM), 100 to 1000 nM. Also, the inhibition at 0.1 µM is not below 50% on KDR (VEGFR2), less than 50% at BRAF, not below 50% on EGFR (ErbB1) and not below 50% at FGFR2.
